# Patent US11034695B2, “Dopamine-β-hydroxylase inhibitors” (BIAL—PORTELA & Ca, S.A., priority 2016, dated 2021)
# Target: T1, Dopamine beta hydroxylase activity in human plasma (Homo sapiens, UniProt P09172)
# T1 construct: 125 μl of plasma (or saline for blank reaction or standard curve); tissue Instituto Português do Sangue Transplantação; host or cells: human plasma from healthy donors
# T1 sequence (P09172 40-617 limits assumed): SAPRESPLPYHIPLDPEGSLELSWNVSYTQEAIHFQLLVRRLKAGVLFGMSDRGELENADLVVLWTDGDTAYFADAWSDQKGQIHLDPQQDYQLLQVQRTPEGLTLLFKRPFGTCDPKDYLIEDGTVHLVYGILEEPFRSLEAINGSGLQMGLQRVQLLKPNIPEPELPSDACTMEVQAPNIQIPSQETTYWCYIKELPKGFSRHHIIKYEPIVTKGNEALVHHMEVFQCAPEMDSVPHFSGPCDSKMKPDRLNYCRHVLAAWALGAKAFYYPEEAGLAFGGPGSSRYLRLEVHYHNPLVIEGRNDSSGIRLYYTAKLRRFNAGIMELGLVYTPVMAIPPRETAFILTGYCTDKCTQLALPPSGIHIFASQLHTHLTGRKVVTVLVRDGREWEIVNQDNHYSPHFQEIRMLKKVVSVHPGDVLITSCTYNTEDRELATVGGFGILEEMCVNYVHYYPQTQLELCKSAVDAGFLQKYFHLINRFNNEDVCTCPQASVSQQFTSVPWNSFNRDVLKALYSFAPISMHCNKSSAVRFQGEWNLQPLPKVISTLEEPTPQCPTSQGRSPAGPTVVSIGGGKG
# Test: DβH activity in human plasma
# Assay type: biochemical
# Conditions: 0.1 μM inhibitor; human plasma; numbers in brackets; read-out: DβH activity in % of Ctrl (0.1 μM), human plasma assay
# Protocol: Furthermore, the ability of a compound to inhibit DβH activity may be assessed in human plasma using the following assay. […]. Dopamine beta hydroxylase activity in human plasma was measured by the method previously developed (Nagatsu, T. and Udenfriend, S. Photometric assay of dopamine-β-hydroxylase activity in human blood. Clin. Chem. 18(9) 980-983, 1972) with minor modifications. Catalase, N-ethylmaleimide, tyramine, disodium fumarate, pargyline, sodium acetate, ascorbic acid, copper sulfate and octopamine were obtained from Sigma Chemical Co., St. Louis, Mo. 63178. Human plasma samples were obtained from healthy donors (Instituto Português do Sangue Transplantação, Centro Sangue Transplantação, Porto, Portugal). From date of collection, plasma was stored at −80° C. until use. Test compounds were initially prepared in dimethyl sulfoxide at a concentration of 10 mM and diluted in dimethyl sulfoxide to the required concentrations. Test compounds were further diluted in ultrapure water to a concentration 20-fold to that of the final concentration to be tested. Final concentrations of test compounds were 10, 100 and 1000 nM. The various reagents used to make up the incubation buffer were premixed and consisted of the following components: sodium acetate buffer (1 M, pH 5.0, 18 ml), sodium fumarate (0.2 M, 4.5 ml), ascorbic acid (0.2 M, 4.5 ml, freshly prepared), pargyline (20 mM, freshly prepared, 4.5 ml), N-ethylmaleimide (0.2 M, 4.5 ml), catalase (10 000 U/ml, 9 ml), copper sulfate (20 μM, 4.5 ml) and 4.5 ultrapure water. The standard incubation mixture (total volume, 950 μl) contained: 50 μL of compound or vehicle (dimethyl sulfoxide 2%); 700 μL of incubation buffer; 125 μl of plasma (or saline for blank reaction or standard curve); 75 μl of saline. The reaction mixture was placed in water bath, shaking at 37° C. and pre-incubated for 10 minutes. Tyramine (0.5 M) was added and incubation proceeded for 45 minutes. The reaction contents were exposed to air. A sample of enzyme preparation (with 125 μl of plasma) that had been added perchloric acid 2 M at the end of the pre-incubation period was used as blank. A blank for each of the tested compounds was used. For octopamine standard curve, perchloric acid 2 M was replaced by increasing concentrations of octopamine prepared in perchloric acid 2 M (0.5, 1, 2.5, 5, 7.5, 10, 15, 20 μg/ml, final concentration). The incubation was stopped by adding 200 μl of 2 M molar perchloric acid, and the mixture was centrifuged at 9000 g for 5 min. The supernatant fluid (800 μL) was transferred to a column (SPE cartridge ISOLUTE SCX-3, 100 mg) and centrifuged at 150 g for 2 min. The column was washed two more times with 0.5 ml of ultrapure water by centrifuging at 150 g for 2 min. The adsorbed octopamine was eluted twice with 0.3 ml of 4 M ammonium hydroxide by centrifuging at 150 g for 2 min. Octopamine in the eluate was then converted to p-hydroxybenzaldehyde by adding 200 μl of sodium periodate (2%) and incubating for 6 min. Excess periodate was than reduced by adding 200 μl of sodium metabisulfite (10%). Absorbance was measured at […] in a 96-well plate by use of a SpectraMAX plus 384 (Molecular Devices) with software SOFTmax® PRO Software 5.3 spectrophotometer. Absorbance was linear with octopamine concentration from 0.5 to 20 μg/ml. Dopamine beta hydroxylase activity is determined as nmol of octopamine formed/ml of plasma/hour and effect of compounds is presented as % control.
# Results are reported in the table below (inside brackets) as activity in % of control at the inhibitor concentration tested.
row,remaining activity at 0.1 µM,SMILES
1,12.1%,"Cc1[nH]c(=S)n2c1C[C@@H](c1c(F)ccc(Br)c1F)C2 [Example 16, (S)-6-(3-bromo-2,6-difluorophenyl)-1-methyl-2,5,6,7-tetrahydro-3H-pyrrolo[1,2-c]imidazole-3-thione]"
2,10%,"[2H]C([2H])([2H])c1[nH]c(=S)n2c1[C@@H]1C[C@]1(c1cc(Br)ccc1F)C2 [Example 18, (5aS,6aR)-5a-(5-bromo-2-fluorophenyl)-1-(methyl-d3)-5,5a,6,6a-tetrahydrocyclopropa[3,4]pyrrolo[1,2-c]imidazole-3(2H)-thione]"
3,88.8%,"Cc1[nH]c(=S)n2c1C[C@H](c1cc(Br)ccc1F)C2 [Example 21, (R)-6-(5-bromo-2-fluorophenyl)-1-methyl-2,5,6,7-tetrahydro-3H-pyrrolo[1,2-c]imidazole-3-thione]"
4,23.8%,"Cc1[nH]c(=S)n2c1C[C@H](c1c(F)ccc(Br)c1F)C2 [Example 15, (R)-6-(3-bromo-2,6-difluorophenyl)-1-methyl-2,5,6,7-tetrahydro-3H-pyrrolo[1,2-c]imidazole-3-thione]"
5,0.5%,"Cc1[nH]c(=S)n2c1C[C@H](c1c(F)cccc1F)C2 [Example 22, (R)-6-(2,6-difluorophenyl)-1-methyl-2,5,6,7-tetrahydro-3H-pyrrolo[1,2-c]imidazole-3-thione]"
6,49.9%,"Cc1[nH]c(=S)n2c1[C@@H]1C[C@]1(c1cc(F)cc(Cl)c1)C2 [Example 17, (5aS,6aR)-5a-(3-chloro-5-fluorophenyl)-1-methyl-5,5a,6,6a-tetrahydrocyclopropa[3,4]pyrrolo[1,2-c]imidazole-3(2H)-thione]"
7,39.1%,"Cc1[nH]c(=S)n2c1C[C@@H](c1cc(Br)ccc1F)C2 [Example 19, (S)-6-(5-bromo-2-fluorophenyl)-1-methyl-2,5,6,7-tetrahydro-3H-pyrrolo[1,2-c]imidazole-3-thione]"
8,74.1%,"Cc1[nH]c(=S)n2c1C[C@@H](c1c(F)c(F)cc(F)c1F)C2 [Example 6, (S)-1-methyl-6-(2,3,5,6-tetrafluorophenyl)-2,5,6,7-tetrahydro-3H-pyrrolo[1,2-c]imidazole-3-thione]"
9,27.7%,"Cc1[nH]c(=S)n2c1C[C@H](c1c(F)ccc(F)c1F)C2 [Example 20, (R)-1-methyl-6-(2,3,6-trifluorophenyl)-6,7-dihydro-2H-pyrrolo[1,2-c]imidazole-3(5H)-thione]"
10,38.3%,"Cc1[nH]c(=S)n2c1[C@@H]1C[C@]1(c1cc(Cl)ccc1F)C2 [Example 8, (5aS,6aR)-5a-(5-chloro-2-fluorophenyl)-1-methyl-5,5a,6,6a-tetrahydrocyclopropa[3,4]pyrrolo[1,2-c]imidazole-3(2H)-thione]"
11,4.7%,"Cc1[nH]c(=S)n2c1[C@@H]1C[C@]1(c1c(F)ccc(Cl)c1F)C2 [Example 14, (5aS,6aR)-5a-(3-chloro-2,6-difluorophenyl)-1-methyl-5,5a,6,6a-tetrahydrocyclopropa[3,4]pyrrolo[1,2-c]imidazole-3(2H)-thione]"
12,67%,"Cc1[nH]c(=S)n2c1C[C@@H](c1cc(Cl)ccc1F)C2 [Example 23, (S)-6-(5-chloro-2-fluorophenyl)-1-methyl-2,5,6,7-tetrahydro-3H-pyrrolo[1,2-c]imidazole-3-thione]"
13,57.3%,"Cc1[nH]c(=S)n2c1C[C@H](c1c(F)c(F)cc(F)c1F)C2 [Example 5, (R)-1-methyl-6-(2,3,5,6-tetrafluorophenyl)-2,5,6,7-tetrahydro-3H-pyrrolo[1,2-c]-imidazole-3-thione]"

# Same assay, conditions: read-out: DβH activity in % of Ctrl (0.1 μM), human plasma assay
row,SMILES,remaining activity at 0.1 µM
1,"Cc1[nH]c(=S)n2c1[C@@H]1C[C@]1(c1cc(Br)ccc1F)C2 [Example 13, (5aS,6aR)-5a-(5-bromo-2-fluorophenyl)-1-methyl-5,5a,6,6a-tetrahydrocyclopropa[3,4]pyrrolo[1,2-c]imidazole-3(2H)-thione]",9.8%
